Experimental data as given in PMC8620715, “Biological Activity of Triazolopyrimidine Copper(II) Complexes Modulated by an Auxiliary N-N-Chelating Heterocycle Ligands” (Molecules, 2021).
Converted amounts (≈) assume the structure as drawn. Read-outs that look alike come from different tables or passages of the source.

Columns and labels:
[1] = test system: B16 murine melanoma cell line; settings: cited from earlier work; for TI: 48 h; for IC50: B16, 48 h
[2] = test system: E. coli 25922; settings: cited from earlier work
[3] = test system: P. aeruginosa 27853; settings: cited from earlier work
[4] = test system: S. aureus 25923; settings: cited from earlier work
[5] = test system: MRSA 388; settings: cited from earlier work
[6] = test system: E. coli 25922; settings: E. coli 25922, biofilm; cited from earlier work
[7] = test system: P. aeruginosa 27853; settings: P. aeruginosa 27853, biofilm; cited from earlier work
[8] = test system: S. aureus 25923; settings: S. aureus 25923, biofilm; cited from earlier work
[9] = test system: MRSA 388; settings: MRSA 388, biofilm; cited from earlier work
[10] = test system: B16 murine melanoma cell line; assay: MTT cell viability assay, B16 melanoma cells; format: cell-based, mouse; settings: 24 h and 48 h
Experimental: (§1) Human fibroblast cells (BJ—ATCC CRL-2522, USA) were grown in minimal essential medium (MEM) supplemented with 2 mM L-Glutamine, 10% fetal calf serum (FCS), 100 units/mL of penicillin, and 100 µg/mL of streptomycin at 37 °C in a humidified incubator under an atmosphere containing 5% CO2. Mouse melanoma cells (B16—ATCC CRL—6475, USA) were grown in DMEM (Dulbecco’s Modified Eagle Medium) supplemented with similar reagents as MEM. All cell cultivation media and reagents were purchased from Biochrom AG (Berlin, Germany) and Sigma-Aldrich (Darmstadt, Germany).
(§2) Cell viability was evaluated using 3-(4,5-dimethylthiazol-2-yl)-2,5-diphenyltetrazolium bromide (MTT) assay as described previously. First, the cells were seeded in 96-well plates (20000 cells/well) and cultured for 24 h in medium. […] The negative control was represented by cells cultivated in a medium without the investigated compounds. Following incubation, the medium was changed, and the MTT solution was added to each well to a final concentration of 1 mg/mL and incubated for an additional 4 h, at 37 °C. Finally, the medium was collected, and DMSO was used to dissolve the insoluble formazan product. The absorbance of the samples was recorded at 570 nm using a plate reader Mithras 940 (Berthold). The data were corrected for the background, and the percentage of viable cells was obtained using the equation:Cell viability = [(A570 of treated cells)/(A570 of untreated cells)] × 100%(1)
(§3) The half-maximal inhibitory concentration (IC50) was determined by fitting the data with a sigmoidal logistical equation using the software Origin 8.1 (Microcal Inc., Los Angeles, CA, USA).

[11] = test system: BJ normal cell line (human fibroblast cells); assay: MTT cell viability assay, BJ normal cells; format: cell-based; settings: range of tested concentrations, 24 h and 48 h
Experimental: as §1, §2, §3

[12] = test system: BJ cells; assay: Lactate dehydrogenase (LDH) release assay, BJ cells; format: cell-based, human; settings: 24 h and 48 h
Experimental: (§4) Membrane integrity after peptide treatment was assessed based on LDH release using a CytoTox 96 Non-Radioactive Cytotoxicity Assay (Promega), as previously described. […] Maximal LDH release was obtained by complete cell lysis induced by using 1% of Triton X-100. The absorption resulting from LDH activity was measured in a microplate reader Mithras 940 (Berthold) at 490 nm, and the % LDH was calculated as: [(corrected absorbance of the LDH released in treated cells)/(corrected absorbance of the total LDH released)] * 100%.

[13] = test system: B16 cells; assay: Lactate dehydrogenase (LDH) release assay, B16 cells; format: cell-based, mouse; settings: B16, 24 h and 48 h
Experimental: as §4

[14] = test system: E. coli 25922; assay: MIC by broth microdilution; format: cell-based, Escherichia coli; settings: Escherichia coli; E. coli 25922, planktonic; read-out: MIC
Experimental: (§5) The antibacterial assays were carried out using two Gram-negative (Escherichia coli ATCC 25922, Pseudomonas aeruginosa ATCC 27853) and two Gram-positive (Staphylococcus aureus ATCC 25923, MRSA (meticillin-Resistant S. aureus) 388 (ATCC, American Type Culture Collection) bacteria.
(§6) The antimicrobial activity of the two complexes (1) and (2) was assessed using their minimum inhibitory concentration (MIC) by the broth microdilution method, as previously described by the Clinical and Laboratory Standard Institute (CLSI; M07-A9 document). A broth microdilution assay was performed in sterile 96-well plates using Muller-Hinton broth (Scharlau; MHB). The compounds solubilized in […] (1,000 μg/mL) were serially diluted in 90 μL MHB, in concentrations ranging between 500 and 0.97 μg/mL. Overnight cultures were used to prepare suspension in phosphate-buffered saline (pH 7.0) to match a 0.5 McFarland density. The bacterial suspensions were further diluted to 1:100 by adding 0.1 mL of bacterial suspension to 9.9 mL of MHB. A volume of 10 μL of this dilution was added to each well of columns 1–10, containing different concentrations of the tested compounds. […] Additionally, 10 μL of the diluted bacterial suspension was added in column 11 (the growth control). A volume of 100 μL MHB was added to the microtiter plates’ sterility control wells (column 12). After inoculation, the plates were incubated at 35 ± 2 °C for 18 h. Growth was measured as light absorbance (620 nm) in comparison to an uninoculated well (negative control). It was detected using a microtiter plate reader (Apollo LB 911ELISA (Berthold Technologies GmbH & Co. KG, Waltham, MA, USA)). The MIC of each compound was defined as the lowest concentration required to inhibit bacterial growth.

[15] = test system: P. aeruginosa 27853; assay: MIC by broth microdilution; format: cell-based, Pseudomonas aeruginosa; settings: Pseudomonas aeruginosa; P. aeruginosa 27853, planktonic; read-out: MIC
Experimental: as §5, §6

[16] = test system: MRSA 388; assay: MIC by broth microdilution; format: cell-based, Staphylococcus aureus; settings: Staphylococcus aureus; MRSA 388, planktonic; read-out: MIC
Experimental: as §5, §6

[17] = test system: S. aureus 25923; assay: MIC by broth microdilution; format: cell-based, Staphylococcus aureus; settings: Staphylococcus aureus; S. aureus 25923, planktonic; read-out: MIC
Experimental: as §5, §6

[18] = test system: E. coli 25922; assay: Biofilm formation on polystyrene (crystal violet), MBEC; format: cell-based, Escherichia coli; settings: E. coli 25922, biofilm
Experimental: as §5
(§7) The method for assessment of biofilm formation on polystyrene microtiter plates was based on previously published protocols. The absorbance at 490 nm was measured with an Apollo LB 911ELISA (Berthold Technologies GmbH & Co. KG, Waltham, MA, USA) reader. The minimal biofilm-eradication concentration (MBEC) was defined as the lowest concentration of antibiotics required to eradicate the biofilm. All experiments were performed in triplicate.

[19] = test system: P. aeruginosa 27853; assay: as above; format: cell-based, Pseudomonas aeruginosa; settings: P. aeruginosa 27853, biofilm
Experimental: as §5, §7

[20] = test system: MRSA 388; assay: as above; format: cell-based, Staphylococcus aureus; settings: MRSA 388, biofilm
Experimental: as §5, §7

[21] = test system: S. aureus 25923; assay: as above; format: cell-based, Staphylococcus aureus; settings: S. aureus 25923, biofilm
Experimental: as §5, §7

[22] = test system: BJ cells; assay: Cell morphology by fluorescence microscopy (phalloidin staining), BJ cells; format: cell-based, human; settings: 2.5 and 10 µg/mL, 24 h
Experimental: (§8) The morphological changes induced by the treatment of the BJ and B16 cell lines with the tested compounds at two different concentrations (2.5 and 10 µg/mL) applied for 24 h were investigated by fluorescence microscopy.
(§9) According to the manufacturer protocol, the cytoskeleton actin filaments of BJ and B16 cells were stained with phalloidin-FITC (Sigma-Aldrich, St. Louis, MO, USA). Briefly, cells were washed with PBS (5 min, 3 times), fixed for 5 min with 3% paraformaldehyde, washed three times with PBS, permeabilized with 0.1% Triton X-100 in PBS for 15 min, washed three times with PBS, stained with 20 μg/mL phalloidin-FITC at room temperature for 1 h and rewashed three times with PBS. The cell nucleus was stained with 8 μM of Hoechst 33342 solution for 10 min, washed three times with PBS, and finally, mounted and sealed on glass slides with FluorSave™ Reagent (Merck Millipore, Germany). The fluorescence images were acquired using an Andor DSD2 Confocal Unit (Andor, Ireland), mounted on an epifluorescence microscope, Olympus BX-51 (Olympus, Germany), equipped with a 40x and 100x objective and an appropriate DAPI/Hoechst filter cube (excitation filter 390/40 […], dichroic mirror 405 nm and emission filter 452/45 nm) and GFP/FITC filter cube (excitation filter 466/40 nm, dichroic mirror 488 nm and emission filter 525/54 nm).

[23] = test system: B16 cells; assay: Cell morphology by fluorescence microscopy (phalloidin staining), B16 cells; format: cell-based, mouse; settings: 2.5 µg/mL (2.84 μM and 2.76 μM for the complexes), 24 h
Experimental: as §8, §9

Row | Compound | TI [1] | IC50 [1] [µM] | MIC [2] [µM] | MIC [3] [µM] | MIC [4] [µM] | MIC [5] [µM] | MBEC [6] [mM] | MBEC [7] [mM] | MBEC [8] [mM] | MBEC [9] [mM] | other results
1 | Cc1cc(-c2ccccc2)nc2ncnn12.[Cu+2].[O-][Cl+3]([O-])([O-])[O-].[O-][Cl+3]([O-])([O-])[O-].c1ccc(-c2ccccn2)nc1.c1ccc(-c2ccccn2)nc1 [CubPP, [Cu(bpy)2(pmtp)](ClO4)2] | 3.23 | 20 | 200 | 400 | 400 | 400 | 0.40 | 0.40 | 0.80 | 0.40 | 
2 | O.[Cu+2].[O-][Cl+3]([O-])([O-])[O-].[O-][Cl+3]([O-])([O-])[O-].c1cnc2c(c1)ccc1cccnc12.c1cnc2c(c1)ccc1cccnc12 [CupP, [Cu(phen)2(OH2)](ClO4)2] | 0.80 | 3.7 | 30 | 500 | 30 | 120 | 0.10 | 0.50 | 0.03 | 0.10 | 
3 | Cc1cc(-c2ccccc2)nc2ncnn12.[Cu+2].[O-][Cl+3]([O-])([O-])[O-].[O-][Cl+3]([O-])([O-])[O-].c1cnc2c(c1)ccc1cccnc12.c1cnc2c(c1)ccc1cccnc12 [CupPP, [Cu(phen)2(pmtp)](ClO4)2] | 0.88 | 4 | 20 | 90 | 10 | 50 | 0.02 | 0.09 | 0.01 | 0.05 | 
4 | Cc1cc(C)n2ncnc2n1 [dmtp, 5,7-dimethyl-1,2,4-triazolo[1,5-a]pyrimidine, reference compound] |  |  |  |  |  |  |  |  |  |  | effect on viability of B16 cells [10]: did not affect the viability; effect on viability of BJ cells [11]: did not affect the viability; membrane integrity (LDH release) [12]: did not affect the membrane integrity; membrane integrity (LDH release) [13]: did not affect the membrane integrity; MIC [14]: 8450 µM (≈ 1250 µg/mL); MIC [15]: 8450 µM (≈ 1250 µg/mL); MIC [16]: 16900 µM (≈ 2500 µg/mL); MIC [17]: 8450 µM (≈ 1250 µg/mL); MBEC [18]: 8.45 mM; MBEC [19]: 8.45 mM; MBEC [20]: 16.90 mM; MBEC [21]: 8.45 mM; morphological changes of BJ cells [22]: did not alter their morphology; morphological changes of B16 cells [23]: not altered
5 | {[Cu(bpy)2(μ2OClO3)]ClO4}n [CubP] | 5.53 | 16 | 540 | 1090 | 270 | 270 | 0.54 | 1.09 | 0.14 | 0.27 | 
